Test results reported in patent US20150225341A1, “PHARMACEUTICALLY ACCEPTABLE SALTS OF THYMODEPRESSIN AND PROCESSES FOR THEIR MANUFACTURE” (APOTEX TECHNOLOGIES INC., priority 2014, published 2015).
“Also recorded” adds a separate entry of the source. Blank lines part the entries; values can stand above or below the substance they belong to.

Legend:
Format in all cases: physicochemical
[1] = Hygroscopicity of the solid salt in air (laboratory observation); conditions: solid (freeze-dried / amorphous) salt
[2] = Speciation plot calculation of solution pH (FIG. 5, from experimentally determined pKas); conditions: according to speciation plot FIG. 5; 0.5 M solution
Source text: A pharmaceutically acceptable salt of a drug substance is one that is chemically stable and can be used in a pharmaceutical composition. Unlike simple aromatic hydrocarbons, thymodepressin is a dipeptide with multi-functional groups. The dipeptide D-isoglutamyl-D-tryptophan has an alpha amine, two carboxylic acids and an indole nitrogen within the same molecule. An ideal salt should be one that has a solution pH close to about 7 and in the low basic pH range. Through investigations in our laboratory, in the search for a novel salt to address the shortcomings of the disodium salt of D-isoglutamyl-D-tryptophan, the speciation plot (FIG. 5) was used to determine salts with ideal solution pH and solubility that are suitable for pharmaceutical formulations. FIG. 5 is a speciation plot of H-D-iGlu-D-Trp-OH from pH 0 to 12 using experimentally determined pKas. In FIG. 5, LH2=H-D-iGlu-D-Trp-OH, LH=mono carboxylic acid salt, L=dicarboxylic acid salt, and LH3=acid addition salt of H-D-iGlu-D-Trp-OH. The X axis provides the pH of the solution, whereas the Y axis reports the amount of the species present at a particular pH. From our practical experience, we use 6 ml of water per gm of H-D-iGlu-D-Trp-OH for isolation purposes, which corresponds to a concentration of 0.5 M solution.
According to the speciation plot calculation shown in FIG. 5, the diacid form has a pH of about 2.7 to about 3 in solution. The metal salt of formula I wherein M is potassium or lithium; the divalent salt of formula II wherein B is calcium or magnesium has a solution pH close to about 7.
We have applied the speciation plot (FIG. 5) to compute the pH range of the salt forms of the dipeptide H-D-iGlu-D-Trp-OH. […] This is particular ideal for liquid formulation, sublingual tablets, nasal drops and sprays.

[3] = Percent crystallinity by X-ray powder diffraction
Source text: The overall crystallinity measured by means of the XRPD technique provides additional helpful information for pharmaceutical materials that contain some amorphous material formed during synthetic procedure. It is also a valuable measure for control of long-term changes in the crystalline materials. Although not related to any structural and compositional features, the measured “percent crystallinity” may be a good indicator for the stability of a particular material as a function of time.
The percent crystallinity is commonly measured as a ratio between the diffraction portion from the crystalline part of the sample, IC, and the total diffraction from the same sample, IC+B. The values of CC can be obtained after an appropriate subtraction of the scattering portion from the background, IB.
For such kind of analyses, the diffraction is measured as total area under the profile of: • the whole pattern as it is collected (one may correct for the air scattering)—ITOTAL. • the peaks only (IC) after subtraction of the background (correction for the air scattering), • the background only with correction for air scattering—(IB).
However, in this study, due to the technical problems with the D5000 point-detector diffraction system, all the samples were analyzed on a D8 system, equipped with an area, 2D detector, and the above-mentioned approach could not be applied. Therefore, another technique has been developed for measuring the crystallinity of samples analyzed on such system. Only a narrow part of the 2D diffraction image is chosen with a single peak at the centre and a neighbour area where the background will be measured.
All samples were measured for calculation of their crystallinity using a narrow range of 21°-25° with a strongest reflection at […]. The background was subtracted as linear, and an empirical correlation coefficient of 2.5 was applied.

pH in solution [2]: above 9.0
Substance: disodium salt of D-isoglutamyl-D-tryptophan
hygroscopicity of the solid [1]: extremely hygroscopic turning into a gel in a matter of minutes in air; also recorded: hygroscopic and very difficult to handle
hygroscopicity of the solid ([1]; listed as disodium salt): extremely hygroscopic and very difficult to weigh

Substance: potassium salt of D-isoglutamyl-D-tryptophan (1:1) [Example 1]
pH in solution [2]: about 7

Substance: calcium salt of D-isoglutamyl-D-tryptophan (1:2) [Example 7]
pH in solution [2]: about 7
% crystallinity ([3]; XRPD, D8 system with 2D detector, not absolute values, listed as Example 8): 18-20%
% crystallinity ([3]; XRPD, D8 system with 2D detector, not absolute values, listed as H-D-iGlu-D-Trp-OH calcium (2:1)): less than 67%
% crystallinity ([3]; XRPD, D8 system with 2D detector; not absolute values; listed as calcium salt of thymodepressin [1:2)): ≤ 67%

Substance: magnesium salt of D-isoglutamyl-D-tryptophan (1:2) [Example 5]
pH in solution [2]: about 7

Substance: lithium salt of D-isoglutamyl-D-tryptophan (1:1) [Example 3A]
pH in solution [2]: about 7
